{
  "source": "patent US20050143453A1",
  "about": "“Selective preventing and therapeutic agents for progressive lesion after organic damage” (priority 2000, published 2005)",
  "key": {"[1]": {"test_system": "induction of effector macrophage by contact of human PBMC with mitomycin-treated human PBMC (allo-MLC)", "assay": "SPFC production by allo-MLC stimulation (Test Example 2)", "type": "cell-based"}, "[2]": {"test_system": "obstruction-released kidney of male SD rats", "assay": "Obstruction release model after complete obstruction of unilateral ureter for 14 days (UUO/Release, Test Example 3)", "type": "in vivo, rat", "design": "key to Suppressive Effect to Glomerular Lesion / Suppressive Effect to Lesion of Tubulointerstitial Tissue: ∘: available; Δ: somewhat available; x: not available", "procedure": "Obstruction Release Model after Complete Obstruction of Unilateral Ureter for 14 Days\nExperimental models were prepared by a method devised and established by Ishibashi (Michio Ishibashi, et al.: The Japanese Journal of Nephrology, 42: 248, 2000) using male SD rats of 8-9 weeks age and about 280 g. Thus, the rat was laparotomized under anesthetization with ether and ureter was ligated with 7-0 Nylon at the height of the margin of lower pole of left kidney to close the abdomen. On the 14th day after obstruction, the obstruction was released and urinary passage was reconstructed using a cuff. Thus, after 14 days, the part of ligated obstructed ureter was resected, a polyethylene tube of 25 gages (manufactured by Nippon Sherwood) was used as a cuff and inserted into and retained at the lumen from the cut end of the lower normal ureter, then the cuff was also retained in the expanded upper ureter and each of them was ligated and fixed by 7-0 Nylon to reconstruct the urinary passage. At the same time, the right kidney at the opposite side was excised. After the release of the obstruction, body weight was measured, blood was collected on the 2nd day, 5th day and 7th day from the release to measure serum creatinine, then the rat was sacrificed under anesthetization and the left obstruction-released kidney was excised. With regard to the excised kidney, there were carried out measurement of weight of the kidney and pathological test for the kidney.\nAn in vivo biological test was carried out for the γ-lactone derivatives according to the present invention using the above models. With regard to the test compound, bulk powder of the test compound was dissolved in an aseptic physiological saline together with gum arabic and the final concentration of gum arabic was 5%(vol/vol). The concentration of the test compound 30 mg/ml was suspended in 5% gum arabic-saline solution. The preparation was subcutaneously injected at the dose of 30 mg/kg every day throughout the experiment. With regard to the test compound, there were used (9-1), (4-2) and (7-3) as the compounds of group I suppressing the SPFC production by allo-MLC stimulation, i.e., the compounds which selectively suppress the induction of effector macrophage in the presence of allo-MLC while there was used (3-2) as the compound of group II suppressing the SPFC production by LPS stimulation, i.e., the compounds which selectively suppress the induction of effector macrophage in the presence of LPS.\nIn the Table, “functional classification” of the compound means the above group I, group II and group III. “Compound” means the compound bearing each of the above-mentioned compound numbers. The fact whether glomerular lesion was suppressed was judged by the ameriolation of the lesions such as thickness of wall of Bowman's capsule, hyperplasia of mesangial cells and glomerular sclerosis. The fact whether lesion of tubulointerstitial tissue was suppressed was judged by the ameriolation of the lesions such as thickness of basement membrane of tubules, cellular infiltration and fibrosis of interstitial tissue. In the table, “control” is the result when the same test as above was carried out using 5% gum arabic only which is a solvent.\nIn order to further confirm whether the preventive and therapeutic effect of the γ-lactone derivatives of the present invention to the target cell damage is selective, (7-3) of the group I and (6-1) of the group II were used as test compounds and they were subcutaneously injected at the dose of 30 mg/kg every day and compared with the control group. With regard to the control group, only 5% gum arabic which is a solvent was used and the same test as above was carried out."}, "[3]": {"test_system": "kidney of chronic puromycin nephrosis rat", "assay": "Puromycin chronic nephrosis model in rat (CPN, Test Example 4)", "type": "in vivo", "procedure": "Evaluation Using Puromycin Chronic Nephrosis Model in Rat\nMale SD rat of 8 weeks age of about 250 g was used and […] of puromycin were intravenously administered once according to a method of Diamond, et al. (J. R. Diamond, I. Pesek, S. Ruggeri, M. J. Karnovsky: Essential fatty acid deficiency during acute puromycin nephrosis ameliorates late renal injury. Am. J. Physiol, 257: F798˜F807, 1989). There was induced a chronic puromycin nephrosis rat where albuminuria increased from about tenth to twelfth week. After eighth week from administration of puromycin, each of compound (9-1) and compound (6-1) was subcutaneously injected at the dose of 30 mg/kg/day everyday until the 22nd week.\nAs a functional evaluation of kidney, albumin in urine was measured every week using a kit for the measurement of albumin. On the 22nd week, the rat was killed and anatomized to observe functional and morphological changes of kidney."}, "[4]": {"conditions": "30 mg/kg subcutaneously every day, Table 2"}, "[5]": {"conditions": "Experimental Model of Rat: UUO/Release"}, "[6]": {"conditions": "30 mg/kg/day subcutaneously from 8th to 22nd week after puromycin"}},
  "note": "Like-named read-outs stand apart in the source and are kept apart here.",
  "data": [
    {"smiles": "CCOC(=O)C(=O)CCC(=O)O", "note": "[(9-1), ethyl 2-ketoglutarate]", "values": [
      {"measurement": "IC50", "setting": "[1]; Table 5, read-out: Inhibiting Concentration for SPEC Production by allo-MLC Stimulation (μM: IC50)", "result": 0.01, "unit": "µM"},
      {"measurement": "IC50", "setting": "[1]; human PBMC with mitomycin-treated human PBMC, incubated 6 days, Table 1, read-out: SPFC Production Inhibiting Concentration by all-MLC Stimulation (μM: IC50)", "result": 0.01, "unit": "µM"},
      {"measurement": "Functional Classification", "setting": "[1]; selectivity allo-MLC versus LPS stimulation, Table 1", "result": "Group I"},
      {"measurement": "selectivity of the suppressive effect on renal lesions", "setting": "[2]; 30 mg/kg subcutaneously every day", "result": "selective suppressive effect"},
      {"measurement": "Rate of Cases where Glomerular Lesion was Suppressed", "setting": "[2]; [4]", "result": "0% (0/4)"},
      {"measurement": "Rate of Cases where tubulointerstitial Lesion was Suppressed", "setting": "[2]; [4]", "result": "100% (4/4)"},
      {"measurement": "Serum Creatinine level (mg/dl) on the 7th Day from Release of Obstruction", "setting": "[2]; [4]", "result": "2.0 ± 0.2", "unit": "mg/dL"},
      {"measurement": "Weight of Kidney (g) on the 7th Day from Release of Obstruction", "setting": "[2]; [4]", "result": "3.01 ± 0.56", "unit": "g"},
      {"measurement": "Suppressive Effect to Glomerular Lesion", "setting": "[2]; [5]", "result": "x"},
      {"measurement": "Suppressive Effect to Lesion of Tubulointerstitial Tissue", "setting": "[2]; [5]", "result": "∘"},
      {"measurement": "suppression of lesion of tubulointerstitial tissues", "setting": "[3]; 30 mg/kg/day subcutaneously", "result": "well suppressed"},
      {"measurement": "Rate of Cases where Glomerular Lesion was Suppressed", "setting": "[3]; [6]", "result": "50% (3/6)"},
      {"measurement": "Rate of Cases where Lesion of Tubulointerstitial Tissue was Suppressed", "setting": "[3]; [6]", "result": "83% (5/6)"}
    ]}
  ]
}
